This note sets out measurements from patent US6492416B1, “4,5-diaryl-3(2H)-furanone derivatives as cyclooxygenase-2 inhibitors” (Pacific Corporation, priority 1999, dated 2002).

Structures are written as SMILES. Values after ≈ are worked out from the molar mass of the structure shown.

In test [1] the target is T1, COX-1 (Mus musculus, UniProt P22437).
T1 sequence (P22437 27-602): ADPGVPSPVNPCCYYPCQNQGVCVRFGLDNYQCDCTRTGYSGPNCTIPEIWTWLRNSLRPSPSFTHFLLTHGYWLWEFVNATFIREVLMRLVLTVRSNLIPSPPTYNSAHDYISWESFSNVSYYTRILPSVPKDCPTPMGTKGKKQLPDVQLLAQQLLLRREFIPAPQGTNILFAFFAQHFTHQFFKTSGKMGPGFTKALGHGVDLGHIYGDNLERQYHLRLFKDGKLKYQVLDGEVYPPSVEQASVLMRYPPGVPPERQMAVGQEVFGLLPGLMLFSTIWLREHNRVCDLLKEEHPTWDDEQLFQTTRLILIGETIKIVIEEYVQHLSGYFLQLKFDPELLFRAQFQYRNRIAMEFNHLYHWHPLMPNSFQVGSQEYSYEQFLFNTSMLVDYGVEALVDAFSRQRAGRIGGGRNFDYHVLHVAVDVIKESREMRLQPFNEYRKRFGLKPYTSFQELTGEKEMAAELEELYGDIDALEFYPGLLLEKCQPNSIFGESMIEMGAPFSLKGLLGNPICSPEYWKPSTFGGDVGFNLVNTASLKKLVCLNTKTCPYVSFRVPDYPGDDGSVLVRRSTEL
Kind of test: Evaluation of COX-1 activity: PGE2 formation in mouse peritoneal macrophages without aspirin and LPS treatment. The class given is cell-based. The method, boiled down:
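Peritoneal macrophages from C57BL/6 mice, without aspirin or LPS treatment, were plated at 1×10^6 cells/ml and fixed 2 h at 37 °C. Cells were preincubated 10 min, then given 10 μM arachidonic acid plus compound for 10 min; PGE2 was measured by RIA or EIA. IC50 came from 4–5 concentrations.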

The test system of test [2] is male SD rats. Kind of test: Antiinflammatory potency by adjuvant arthritis (AA). In kind it is in vivo. The settings on record: daily oral dose day 14 to day 22, rat. The protocol: Arthritis was induced in male SD rats weighing 180-200 g by subcutaneous injection of Mycobacterium butyricum mixed in 0.1 ml of incomplete Freund's adjuvanat into the base of the tail. The foot volumes were measured using a displacement plethysomometer 14 days after the injection of the adjuvant. Animals with paw volumes greater than the normal paw volumes (without the adjuvant treatment) by 0.37 ml were selected, and then randomized. A designated daily dose of a compound of this invention, which was suspended in 1% aqueous methylcellulose solution, was administered to the randomized rats with arthritis by oral gavage daily once beginning on day 14 after the injection of the adjuvant. The administration of the compound continued till day 22 after the injection of the adjuvant, and the paw volumes were measured on daily basis using a displacement plethysmometer.
% Inhibition of AA=(1−Δtreated/Δcontrol)×100
wherein Δtreated=[(paw volume at day 22)/(paw volume at day 14)−1] for a drug-administered rat, and Δcontrol=[(paw volume at day 22)/(paw volume at day 14)−1] for a rat without drug administration.
ED50 value was determined b a dose-response curve for each compound.

Test [3] has as its system male Sprague-Dawley (SD) rats. Nature of the test: Carrageenan-induced foot edema in rats (CFE). In kind it is in vivo. Particulars: oral dose 3 mg/kg body weight, rat, paw volume 3 hours after Carrageenan. The protocol: An appropriate amount of a compound of this invention suspended in 1% methylcellulose (MC) solution was administered to male Sprague-Dawley (SD) rats weighing 150˜200 g by oral gavage. The volume of the administered vehicle for a compound of this invention was controlled to be smaller than 10 ml/kg body weight of the animal. One hour later, 0.1 ml of 1% Carrageenan saline solution was directly injected into the right paw of the rats to induce edema in the paw. The paw volumes at 0 hour and at 3 hours after the injection of Carrageenan were measured by using a displacement plethysmometer (Ugo Basile, Italy). The paw volumes were used to calculate % inhibition of CFE by an amount of a compound of this invention according to the following equation.
% Inhibition of CFE=(1−Δtreated/Δcontrol)×100
wherein Δtreated=[paw volume at three hours after the Carrageenan injection−paw volume right after Carrageenan injection] for a drug-administered rat, and Δcontrol=[paw volume at three hours after the Carrageenan injection−paw volume right after Carrageenan injection] for a rat without drug administration.
In order to determine the inhibitory activity of a compound of this invention at a dose, usually 5 to 8 animals were used both for drug-treated group and for control group.
On the technique in general: The carrageenan paw model is a standard test of acute inflammation.

As for `CC1(C)OC(c2ccc(S(C)(=O)=O)cc2)=C(c2cc(F)cc(F)c2)C1=O` [Example 11, 4-(3,5-Difluorophenyl)-2,2-dimethyl-5-{4-(methylsulfonyl)phenyl}-3(2H)-furanone], the “IC50, μg/ml COX-1” value in test [1] worked out at 20 µg/mL (≈ 52.9 µM). In addition, in test [2], the “Adjuvant Arthritis ED50” value turned out to be 0.03 mg/kg body weight.

With `CC1(C)OC(c2ccc(S(N)(=O)=O)cc2)=C(c2cccc(F)c2)C1=O` [Example 129, 5-{4-(aminosulfonyl)phenyl}-2,2-dimethyl-4-(3-fluorophenyl)-3(2H)-furanone], in test [1], the “IC50, μg/ml COX-1” value came to 1.02 µg/mL (≈ 2.82 µM). In test [3], the “% Inhibition (CFE)” value stood at 47%. In addition, the “Adjuvant Arthritis ED50” value in test [2] is recorded as 0.02 mg/kg body weight.

For the compound `CC1(C)OC(c2ccc(S(C)(=O)=O)cc2)=C(c2cccc(F)c2)C1=O` [Example 4, 2,2-Dimethyl-4-(3-fluorophenyl)-5-{4-(methylsulfonyl)phenyl}-3(2H)-furanone], in test [1], the “IC50, μg/ml COX-1” value turned out to be 5 µg/mL (≈ 13.9 µM). Moreover, the “% Inhibition (CFE)” value in test [3] is given as 36%. The “Adjuvant Arthritis ED50” value in test [2] was found to be 0.07 mg/kg body weight.

With `CC1(C)OC(c2ccc(S(N)(=O)=O)cc2F)=C(c2ccc(F)cc2)C1=O` [Example 334], the “IC50, μg/ml COX-1” value in test [1] is 3 µg/mL (≈ 7.91 µM). Also, the “% Inhibition (CFE)” value in test [3] came to 37%. Moreover, in test [2], the “Adjuvant Arthritis ED50” value stood at 0.09 mg/kg body weight.

Take `CC1(C)OC(c2ccc(S(N)(=O)=O)cc2)=C(c2cccc(Cl)c2)C1=O` [Example 126]: in test [1], the “IC50, μg/ml COX-1” value was 3.82 µg/mL (≈ 10.1 µM). In test [3], the “% Inhibition (CFE)” value turned out to be 39%. The “Adjuvant Arthritis ED50” value in test [2] came to 0.03 mg/kg body weight.
